Data reported in patent publication US4223021A, “Synthetic peptides having pituitary growth hormone releasing activity” (priority 1979, dated 1980).
Residues, ends and D or L forms follow the SMILES beside them.

Test system: pituitaries removed from 20 day old female rats
Assay: In vitro growth hormone release study (incubated rat pituitaries, GH radioimmunoassay)
Type: cell-based
Settings: mean ± SEM, control -198± 85
Method: Female rats of the CD-1 strain were housed in a constant temperature room at 24° C. with 14 hours light and 10 hours darkness. The rats were fed Purina brand rat chow ab libitum.
All studies were started between 0800 and 1000 hours.
Pituitaries were removed from 20 day old female rats. Two pituitaries were incubated at 36° C. in 1 ml of lactated Ringer's solution in 10 ml polytetrafluoroethylene beakers in a Dubnoff Shaker (90 cycles/min.). The pituitaries were incubated a total of 4 hours (P1, P2, I3, and I4). After two successive one hour preincubation periods (P1, P2), the peptide was added to the incubation medium hourly for 2 hours (I3, I4).
This in vitro study was performed in triplicate and a standard radioimmunoassay of growth hormone present in the incubation medium was performed in duplicate. The hormonal activity was calculated as the difference (Δ) of growth hormone (GH) levels between I3, I4 and P2, i.e., (I3 -P2) and (I4 -P2). P values were calculated by Students' t test using six growth hormone values for each value recorded.
The growth hormone radioimmunoassay reagents were distributed by the National Institute of Arthritis and […] (NIAMDD) program. The growth hormone values were calculated in terms of nanograms (ng) of a rat standard with a growth hormone potency of 0.61 units/mg.

SMILES: NC(=O)[C@@H](Cc1ccccc1)NC(=O)[C@H](Cc1ccccc1)NC(=O)[C@@H](Cc1c[nH]c2ccccc12)NC(=O)CNC(=O)[C@@H](N)Cc1ccc(O)cc1 [H2 N-Tyr-Gly-D-Trp-Phe-D-Phe-CONH2] (HELM PEPTIDE1{Y.G.[dW].F.[dF].[am]}$$$$V2.0)
- In vitro growth hormone release (ΔGH, I3/I4 minus P2) (1μg peptide, P value not significant): 200 ± 167 ngΔGH/ml incubation medium
- In vitro growth hormone release (ΔGH, I3/I4 minus P2) (10μg peptide, P value <0.001): 1384 ± 120 ngΔGH/ml incubation medium
- In vitro growth hormone release (ΔGH, I3/I4 minus P2) (100μg peptide, P value <0.001): 1196 ± 194 ngΔGH/ml incubation medium
